The values below come from publication PMC11596155, “When Chirality Makes the Difference: The Case of Novel Enantiopure N-Heterocyclic Carbene–Gold and –Silver Complexes” (Molecules, 2024).

Each structure is given as a SMILES string. Some results are limits rather than exact numbers.

One assay has as its system MCF-7 cells. Description: MTT assay, anticancer activity, MCF-7. The assay is classed as cell-based, human. Conditions: mean ± SD of three experiments. How it is done: (§1) All cell lines used for the reported studies were purchased from the American Type Culture Collection (ATCC, Manassas, VA, USA). Human breast cancer cells MCF-7 and MDA-MB-231 were maintained in Dulbecco’s Modified Eagle Medium/Nutrient Mixture F12 Ham (DMEM/F12) supplemented with 5% fetal bovine serum (FBS), 1% L-glutamine and 100 units/mL of penicillin/streptomycin. Human mammary epithelial cells MCF-10A were cultured in DMEM/F12 medium, supplemented with 5% horse serum (HS), 100 units/mL of penicillin/streptomycin, […], 0.02 µg/mL human epidermal growth factor (EGF), 10 µg/mL insulin and […] [34]. The murine macrophages RAW 264.7 were grown in Dulbecco’s Modified Eagle’s Medium (DMEM) high glucose (4.5 g/L), added with 10% fetal bovine serum (FBS), 1% L-glutamine and 100 units/mL of penicillin/streptomycin. Cells were maintained at 37 °C, in a humidified atmosphere containing 5% CO2.
(§2) Cell viability was determined using the 3-(4,5-dimethylthiazol-2-y1)-2,5-diphenyltetrazolium bromide assay (MTT, Sigma-Aldrich, Milan, Italy), as in [35]. Cells were treated for 72 h (anticancer activity) or 24 h (anti-inflammatory activity) at different concentrations and the IC50 values were obtained using GraphPad Prism 9 software (GraphPad Software, La Jolla, CA, USA).

Assay [1] has as its system Staphylococcus aureus (ATCC 23235). Description: MIC and MBC by broth dilution, S. aureus. The format is cell-based. Conditions: for M.B.C. S. aureus / M.I.C. S. aureus / MIC: broth dilution, overnight 37 °C; for MIC: Staphylococcus aureus, ATCC23235, read-out: M.I.C. S. aureus. An excerpt: (§3) The bacterial strains used for MIC and MBC value determinations expressed as µg/mL by the broth dilution method, according to CLSI guidelines, were the following: Gram-negative: Escherichia coli (ATCC® 25922TM); Gram-positive: Staphylococcus aureus (ATCC® 23235TM). The MIC represents the lowest concentration of compound able to inhibit the visible microbial growth, expressed in μg/mL, whereas the MBC is the lowest concentration of a given compound that can completely kill the bacteria. Bacteria were grown overnight in LB medium (2%), diluted at a density of […] colony forming units (CFUs/mL), plated in the 96-well microplates to obtain a total inoculum load of ca. 10^5 cells/well and then treated with increasing concentrations of the tested complexes (1, 5, 10, 20, 50, 100, 200 μg/mL). Successively, after incubation at 37 °C overnight, the bacterial growth was monitored at a wavelength of 600 nm using a Multiskan spectrophotometer (Multiskan Ex Microplate model; Thermo Scientific, Nyon, Switzerland). MIC or MBC values were obtained by comparing cell density with a positive control (bacterial cells grown in LB medium were added with only the vehicle, DMSO). The results were representative of three independent experiments performed in triplicate and ampicillin (Sigma Aldrich A9393) was used as the control for strain sensitivity.

Assay [2] has as its system Escherichia coli (ATCC 25922). The assay can be described thus: MIC and MBC by broth dilution, E. coli. The format is cell-based. Conditions: for M.B.C. E. coli / M.I.C. E. coli / MIC: broth dilution, overnight 37 °C; for MIC: Escherichia coli, ATCC25922.
Text: as §3

The subject of another assay is MCF-10A cells. Description: MTT assay, cytotoxicity on normal mammary epithelial cells MCF-10A. Conditions: 72 h, normal cells, mean ± SD of three experiments. The assay is classed as cell-based, human. The procedure: as §1, §2
The test system of another assay is MDA-MB-231 cells. The assay can be described thus: MTT assay, anticancer activity, MDA-MB-231. The assay is classed as cell-based, human. Conditions: for IC50: mean ± SD of three experiments. How it is done: as §1, §2

Regarding `CN1C=CN(C[C@H](O)c2ccccc2)[CH]1[AgH][I]` (stereo partly drawn) [(R)-AgL1, (1-((R)-2-hydroxy-2-phenylethyl)-3-methyl-2,3-dihydro-1H-imidazol-2-yl)silver(I) iodide], the IC50 with MCF-7 cells (72 h) was found to be 14.5 ± 1.2 µM. In assay [1], the “M.B.C. S. aureus” value is listed as greater than 150 µg/mL and the “M.I.C. S. aureus” value was 75 µg/mL. In assay [2], the “M.B.C. E. coli” value was greater than 100 µg/mL and the “M.I.C. E. coli” value is recorded as 25 µg/mL. In the assay on MCF-10A cells, this compound yielded an IC50 of 54.8 ± 2.1 µM. In the assay on MDA-MB-231 cells (72 h), this compound displayed an IC50 of 9.2 ± 0.5 µM.

Regarding `CN1C(Cl)=C(Cl)N(C[C@H](O)c2ccccc2)[CH]1[AgH][I]` (stereo partly drawn) [(R)-AgL2, (4,5-dichloro-1-((R)-2-hydroxy-2-phenylethyl)-3-methyl-2,3-dihydro-1H-imidazol-2-yl)silver(I) iodide], the results for the IC50 in the assay on MCF-7 cells (72 h), with MCF-10A cells and in the assay on MDA-MB-231 cells (72 h) were 18.4 ± 0.9 µM, 69.2 ± 2.7 µM and 6.7 ± 0.7 µM, respectively. For the same compound, the “M.B.C. S. aureus” value in assay [1] was greater than 150 µg/mL. For the same compound, in assay [1], the “M.I.C. S. aureus” value was 75 µg/mL. In addition, in assay [2], the “M.B.C. E. coli” value is recorded as greater than 100 µg/mL. Also, the “M.I.C. E. coli” value in assay [2] came to 50 µg/mL.

In the case of `C[n+]1ccn(C[C@H](O)c2ccccc2)c1.[I-]` [(R)-P1, (R)-1-(2-hydroxy-2-phenylethyl)-3-methyl-1H-imidazol-3-ium iodide], the IC50 is greater than 200 µM in the assay with MCF-7 cells (Homo sapiens, MCF7, 72 h); greater than 200 µM in the assay with MCF-10A cells (Homo sapiens, MCF-10A); greater than 200 µM with MDA-MB-231 cells (Homo sapiens, MDA-MB-231, 72 h). Also, the figures for the MIC in assay [1] and in assay [2] were 75 µg/mL and 100 µg/mL, respectively. The “M.B.C. S. aureus” value in assay [1] is given as greater than 150 µg/mL. Also, the “M.B.C. E. coli” value in assay [2] is given as greater than 200 µg/mL.

Turning to `C[n+]1cn(C[C@H](O)c2ccccc2)c(Cl)c1Cl.[I-]` [(R)-P2, (R)-4,5-dichloro-1-(2-hydroxy-2-phenylethyl)-3-methyl-1H-imidazol-3-ium iodide], the IC50 in the assay with MCF-7 cells (Homo sapiens, MCF7, 72 h) was greater than 200 µM; in the assay on MCF-10A cells (Homo sapiens, MCF-10A), greater than 200 µM; with MDA-MB-231 cells (Homo sapiens, MDA-MB-231, 72 h) it was greater than 200 µM. Moreover, the MIC in assay [1] and in assay [2] was 75 µg/mL each time. Besides, the “M.B.C. S. aureus” value in assay [1] is listed as greater than 150 µg/mL. The “M.B.C. E. coli” value in assay [2] is reported as greater than 200 µg/mL.

In the assay with MCF-7 cells (72 h), `CN1C=CN(C[C@@H](O)c2ccccc2)[CH]1[AgH][I]` (stereo partly drawn) [(S)-AgL1, (1-((S)-2-hydroxy-2-phenylethyl)-3-methyl-2,3-dihydro-1H-imidazol-2-yl)silver(I) iodide] displayed an IC50 of 69.8 ± 2.1 µM. In assay [1], the “M.B.C. S. aureus” value was greater than 100 µg/mL and the “M.I.C. S. aureus” value is 50 µg/mL. For the same compound, in assay [2], the “M.B.C. E. coli” value is greater than 200 µg/mL and the “M.I.C. E. coli” value amounted to 75 µg/mL. In the assay on MCF-10A cells, this compound yielded an IC50 greater than 200 µM. The same compound had an IC50 in the assay on MDA-MB-231 cells (72 h) greater than 200 µM.

On to `CN1C(Cl)=C(Cl)N(C[C@@H](O)c2ccccc2)[CH]1[AgH][I]` (stereo partly drawn) [(S)-AgL2, (4,5-dichloro-1-((S)-2-hydroxy-2-phenylethyl)-3-methyl-2,3-dihydro-1H-imidazol-2-yl)silver(I) iodide], for which it took 4 ± 0.5 µM to reach half-maximal inhibition in the assay with MCF-7 cells (72 h) (IC50). In addition, in assay [1], the “M.B.C. S. aureus” value was greater than 200 µg/mL and the “M.I.C. S. aureus” value is recorded as 75 µg/mL. In assay [2], the “M.B.C. E. coli” value is greater than 200 µg/mL and the “M.I.C. E. coli” value is reported as 75 µg/mL. Besides, the IC50 in the assay with MCF-10A cells is greater than 200 µM. Also, in the assay with MDA-MB-231 cells (72 h), the “effect on MDA-MB-231 viability (in words)” value was “inactive” and the IC50 was greater than 200 µM.

Regarding `CN1C=CN(C[C@@H](O)c2ccccc2)[CH]1[Au-][Cl]` (stereo partly drawn) [(S)-AuL1, (1-((S)-2-hydroxy-2-phenylethyl)-3-methyl-2,3-dihydro-1H-imidazol-2-yl)gold(I) chloride], in the assay with MCF-7 cells (72 h), the IC50 was found to be 14.6 ± 1 µM. Further, in assay [1], the “M.B.C. S. aureus” value is recorded as greater than 150 µg/mL and the “M.I.C. S. aureus” value is listed as 75 µg/mL. Further, in assay [2], the “M.B.C. E. coli” value is on record as greater than 150 µg/mL and the “M.I.C. E. coli” value was 75 µg/mL. The compound also gave an IC50 with MCF-10A cells of 64.5 ± 3.2 µM. In the assay with MDA-MB-231 cells (72 h), the IC50 came to 22.6 ± 0.4 µM.

In turn, `CN1C(Cl)=C(Cl)N(C[C@@H](O)c2ccccc2)[CH]1[Au-][Cl]` (stereo partly drawn) [(S)-AuL2, (4,5-dichloro-1-((S)-2-hydroxy-2-phenylethyl)-3-methyl-2,3-dihydro-1H-imidazol-2-yl)gold(I) chloride] yielded an IC50 in the assay on MCF-7 cells (72 h) of 10 ± 0.5 µM. In addition, in assay [1], the “M.B.C. S. aureus” value is recorded as greater than 100 µg/mL and the “M.I.C. S. aureus” value is listed as 75 µg/mL. Also, in assay [2], the “M.B.C. E. coli” value was greater than 200 µg/mL and the “M.I.C. E. coli” value was 100 µg/mL. The compound also showed an IC50 with MCF-10A cells of 17.2 ± 1.6 µM. In the assay on MDA-MB-231 cells (72 h), this compound had an IC50 of 11.5 ± 0.4 µM.

Regarding `C[n+]1ccn(C[C@@H](O)c2ccccc2)c1.[I-]` [(S)-P1, (S)-1-(2-hydroxy-2-phenylethyl)-3-methyl-1H-imidazol-3-ium iodide], the IC50 with MCF-7 cells (Homo sapiens, MCF7, 72 h) was greater than 200 µM; in the assay with MCF-10A cells (Homo sapiens, MCF-10A) it was greater than 200 µM; with MDA-MB-231 cells (Homo sapiens, MDA-MB-231, 72 h), greater than 200 µM. The MIC in assay [1] was 75 µg/mL; in assay [2], 100 µg/mL. In addition, in assay [1], the “M.B.C. S. aureus” value is greater than 150 µg/mL. For the same compound, the “M.B.C. E. coli” value in assay [2] is given as greater than 200 µg/mL.

Turning to `C[n+]1cn(C[C@@H](O)c2ccccc2)c(Cl)c1Cl.[I-]` [(S)-P2, (S)-4,5-dichloro-1-(2-hydroxy-2-phenylethyl)-3-methyl-1H-imidazol-3-ium iodide], the IC50 with MCF-7 cells (Homo sapiens, MCF7, 72 h) was greater than 200 µM; in the assay with MCF-10A cells (Homo sapiens, MCF-10A), greater than 200 µM; in the assay on MDA-MB-231 cells (Homo sapiens, MDA-MB-231, 72 h), greater than 200 µM. Further, the MIC in assay [1] and in assay [2] was 75 µg/mL throughout. Besides, the “M.B.C. S. aureus” value in assay [1] is greater than 200 µg/mL. Also, the “M.B.C. E. coli” value in assay [2] is on record as greater than 150 µg/mL.

As for `CC1(C)S[C@@H]2[C@H](NC(=O)[C@H](N)c3ccccc3)C(=O)N2[C@H]1C(=O)O` [ampicillin, reference compound], the “strain sensitivity S. aureus (in words)” value in assay [1] (control for strain sensitivity) is listed as “sensitive”. Further, the “strain sensitivity E. coli (in words)” value in assay [2] (control for strain sensitivity) is “sensitive”.
